This is an account of results in patent US8129403B2, “Chemical compounds” (AstraZeneca AB, priority 2005, dated 2012).

T1 sequence (P04629 442-796): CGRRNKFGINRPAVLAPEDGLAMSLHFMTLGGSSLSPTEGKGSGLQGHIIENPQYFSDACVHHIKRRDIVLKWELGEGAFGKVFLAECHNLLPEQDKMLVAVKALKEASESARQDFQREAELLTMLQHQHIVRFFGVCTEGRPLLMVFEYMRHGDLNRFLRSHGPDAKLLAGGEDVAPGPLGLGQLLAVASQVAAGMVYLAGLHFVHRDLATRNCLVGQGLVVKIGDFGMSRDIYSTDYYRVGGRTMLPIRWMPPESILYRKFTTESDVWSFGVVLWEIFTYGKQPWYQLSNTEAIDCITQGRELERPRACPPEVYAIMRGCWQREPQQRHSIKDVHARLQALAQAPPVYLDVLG

The assay addresses T1, human Trk A kinase (Homo sapiens, UniProt P04629).
T1 construct: HIS tag; made in house; host or cells: SF9 insect cells
Put plainly: Trk A Assay (Alphascreen kinase assay). The assay is classed as biochemical. Conditions: intracellular domain of HIS-tagged human Trk A, 70 μM ATP, PolyEY-biotin substrate, 20 minutes room temperature; read-out: IC50 (μM), Trk inhibitory activity. The protocol:
Trk A kinase activity was measured for its ability to phosphorylate synthetic tyrosine residues within a generic polypeptide substrate using an Amplified Luminescent Proximity Assay (Alphascreen) technology (PerkinElmer, 549 Albany Street, Boston, Mass.).
To measure Trk A kinase activity, the intracellular domain of a HIS-tagged human Trk A kinase (amino acids 442-796 of Trk A, Swiss-Prot Primary Accession Number P04629) was expressed in SF9 cells and purified using standard nickel column chromatography. After incubation of the kinase with a biotinylated substrate and adenosine triphosphate (ATP) for 20 minutes at room temperature, the kinase reaction was stopped by the addition of 30 mM ethylenediaminetetraacetic acid (EDTA). The reaction was performed in 384 well microtitre plates and the reaction products were detected with the addition of strepavidin coated Donor Beads and phosphotyrosine-specific antibodies coated Acceptor Beads using the EnVision Multilabel Plate Reader after an overnight incubation at room temperature.
Take `Fc1ccc(CNc2ncc3ncn(-c4cc(C5CC5)[nH]n4)c3n2)cc1` [Example 4, 9-(5-Cyclopropyl-1H-pyrazol-3-yl)-N-(4-fluorobenzyl)-9H-purin-2-amine]: the 50% inhibitory concentration (IC50) turned out to be 0.02 µM.

`Fc1ccc(CNc2ccc3ncn(-c4cc(C5CC5)[nH]n4)c3n2)cc1` [Example 14, N-(4-Fluorobenzyl)-3-(5-cyclopropyl-1H-pyrazol-3-yl)-3H-imidazo[4,5-b]pyridin-5-amine]: the half-inhibitory concentration (IC50) is 0.022 µM.

Regarding `Fc1ccc(CNc2ccc3ncn(-c4cc(C5CC5)[nH]n4)c3c2)cc1` [Example 29, N-(4-Fluorobenzyl)-3-(5-cyclopropyl-1H-pyrazol-3-yl)-3H-benzo[d]imidazol-5-amine], the IC50 was 0.015 µM.
